# Experimental data taken from ChEMBL document CHEMBL1201862, “PubChem BioAssay data set” (2004).
#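 All cell lines were grown in 96-well plates and treated with compound for 48 hours. GI50 is the concentration that inhibits growth by half.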 Calls of active or inactive are those of the source. No stated cut-off is given here; in the data, active = GI50 up to about 1.1 µM and inactive = higher.
# Columns and labels:
# Assay in all cases: DTP human tumour cell line panel, 48 h
# [1] = system: UO-31
# [2] = system: KM12
# [3] = system: MDA-N
# [4] = system: SR
# [5] = system: HL-60
# [6] = system: T47D
# [7] = system: M14
# [8] = system: SW-620
# [9] = system: RPMI-8226
# [10] = system: EKVX
# [11] = system: NCI-H23
# [12] = system: UACC-62
# [13] = system: SF-268
# [14] = system: ACHN
# [15] = system: Malme-3M
# [16] = system: OVCAR-3
# [17] = system: A498
# [18] = system: NCI-H522
# [19] = system: Hs-578T
# [20] = system: SK-OV-3
SMILES,GI50 [1],GI50 [2],GI50 [3],GI50 [4],GI50 [5],GI50 [6],GI50 [7],GI50 [8],GI50 [9],GI50 [10],GI50 [11],GI50 [12],GI50 [13],GI50 [14],GI50 [15],GI50 [16],GI50 [17],GI50 [18],GI50 [19],GI50 [20]
C=CCC1(C#N)C(=S)NC2=C(C(=O)CC(C)(C)C2)C1c1ccccc1 (configuration not stated),36.4 µM (inactive),32.7 µM (inactive),70.6 µM (inactive),50.6 µM (inactive),> 100 µM (inactive),27.3 µM (inactive),59.8 µM (inactive),> 100 µM (inactive),52.5 µM (inactive),19.2 µM (inactive),39.9 µM (inactive),,,,,,,,,
COc1ccc(NC(/C(C(=O)c2ccccc2)=C(\O)C(=O)/C=C(\O)c2ccccc2)c2ccc(OC)cc2)cc1 (configuration not stated),53.6 µM (inactive),30.9 µM (inactive),,31.6 µM (inactive),34.1 µM (inactive),24.5 µM (inactive),23.2 µM (inactive),,24.2 µM (inactive),18.7 µM (inactive),47 µM (inactive),52.4 µM (inactive),43.1 µM (inactive),64.9 µM (inactive),21.2 µM (inactive),21.6 µM (inactive),35.7 µM (inactive),15.2 µM (inactive),36 µM (inactive),39.3 µM (inactive)
CC1(C)N(OC2CCCCO2)C(c2ccccc2)C(c2ccccc2)=[N+]1[O-] (configuration not stated),59.8 µM (inactive),93.5 µM (inactive),> 100 µM (inactive),27 µM (inactive),8.93 µM (inactive),,64 µM (inactive),> 100 µM (inactive),,> 100 µM (inactive),49.9 µM (inactive),> 100 µM (inactive),,> 100 µM (inactive),> 100 µM (inactive),54.3 µM (inactive),> 100 µM (inactive),,94 µM (inactive),> 100 µM (inactive)
S=C(NCCc1ccccn1)N/N=C/c1ccccn1,,0.106 µM (active),1.91 µM (inactive),< 0.01 µM (active),< 0.01 µM (active),< 0.01 µM (active),0.0131 µM (active),< 0.01 µM (active),< 0.01 µM (active),0.0243 µM (active),< 0.01 µM (active),0.0841 µM (active),0.301 µM (active),< 0.01 µM (active),2.62 µM (inactive),< 0.01 µM (active),,< 0.01 µM (active),,1.12 µM (active)
O[C@@H]1[C@H](OC2c3ccccc3-c3ccccc32)[C@H](OCc2ccccc2)[C@@H]2OC[C@H]1O2,> 100 µM (inactive),> 100 µM (inactive),> 100 µM (inactive),,> 100 µM (inactive),> 100 µM (inactive),> 100 µM (inactive),> 100 µM (inactive),71.9 µM (inactive),> 100 µM (inactive),> 100 µM (inactive),> 100 µM (inactive),57.1 µM (inactive),> 100 µM (inactive),> 100 µM (inactive),> 100 µM (inactive),> 100 µM (inactive),> 100 µM (inactive),43.4 µM (inactive),
CSC1=N/C(=C\c2ccc(Cl)cc2)C(=O)N1CN1CCCCC1,23.6 µM (inactive),49.5 µM (inactive),56.8 µM (inactive),25 µM (inactive),,,79.1 µM (inactive),34.9 µM (inactive),37.4 µM (inactive),16.6 µM (inactive),64.3 µM (inactive),65.8 µM (inactive),27.4 µM (inactive),25.4 µM (inactive),25.5 µM (inactive),34.2 µM (inactive),17.7 µM (inactive),27.4 µM (inactive),20.7 µM (inactive),35.1 µM (inactive)
O=S1(=O)OCCOS(=O)(=O)C1S(=O)(=O)c1cccc2ccccc12,> 100 µM (inactive),> 100 µM (inactive),> 100 µM (inactive),> 100 µM (inactive),68.5 µM (inactive),,> 100 µM (inactive),70.5 µM (inactive),> 100 µM (inactive),> 100 µM (inactive),> 100 µM (inactive),,,> 100 µM (inactive),> 100 µM (inactive),> 100 µM (inactive),,,,
O=C(/C=C/c1ccc(O)c(O)c1)OCCc1ccc2ccccc2c1,3.19 µM (inactive),3.64 µM (inactive),2.38 µM (inactive),,,4.67 µM (inactive),4.95 µM (inactive),6.93 µM (inactive),,14.6 µM (inactive),3.42 µM (inactive),3.69 µM (inactive),10.9 µM (inactive),2.86 µM (inactive),10.9 µM (inactive),3.26 µM (inactive),15.2 µM (inactive),2.38 µM (inactive),4.79 µM (inactive),13.5 µM (inactive)
Cn1cnc2c(OCC3CCCCC3)nc(N)nc21,72.9 µM (inactive),> 100 µM (inactive),> 100 µM (inactive),,> 100 µM (inactive),,> 100 µM (inactive),> 100 µM (inactive),> 100 µM (inactive),> 100 µM (inactive),> 100 µM (inactive),> 100 µM (inactive),> 100 µM (inactive),< 0.01 µM (active),> 100 µM (inactive),> 100 µM (inactive),,> 100 µM (inactive),> 100 µM (inactive),> 100 µM (inactive)
CC(=O)Oc1cc(OC(C)=O)c2c(c1C)CC[C@@H]1[C@@H]2CC[C@]2(C)[C@@H](OC(C)=O)CC[C@@H]12,17.5 µM (inactive),16.6 µM (inactive),18.6 µM (inactive),16.8 µM (inactive),19.1 µM (inactive),,19.5 µM (inactive),18.9 µM (inactive),8.15 µM (inactive),14.8 µM (inactive),20.2 µM (inactive),18.7 µM (inactive),20.3 µM (inactive),17.5 µM (inactive),15.6 µM (inactive),17.3 µM (inactive),18.9 µM (inactive),16.7 µM (inactive),21.9 µM (inactive),
c1ccc(CCNCc2ccco2)nc1,> 100 µM (inactive),> 100 µM (inactive),> 100 µM (inactive),1 µM (active),> 100 µM (inactive),,> 100 µM (inactive),> 100 µM (inactive),,> 100 µM (inactive),> 100 µM (inactive),> 100 µM (inactive),> 100 µM (inactive),> 100 µM (inactive),> 100 µM (inactive),> 100 µM (inactive),> 100 µM (inactive),> 100 µM (inactive),> 100 µM (inactive),> 100 µM (inactive)
Cc1cc(=O)n2nc(CSc3nnc(N)s3)sc2n1,> 100 µM (inactive),> 100 µM (inactive),> 100 µM (inactive),,> 100 µM (inactive),> 100 µM (inactive),> 100 µM (inactive),> 100 µM (inactive),> 100 µM (inactive),> 100 µM (inactive),> 100 µM (inactive),> 100 µM (inactive),> 100 µM (inactive),> 100 µM (inactive),> 100 µM (inactive),> 100 µM (inactive),,> 100 µM (inactive),> 100 µM (inactive),> 100 µM (inactive)
N#Cc1c(-c2ccc(Cl)cc2)cc(-c2ccc(Nc3ccnc4cc(C(F)(F)F)ccc34)cc2)nc1N,15.7 µM (inactive),> 100 µM (inactive),32.8 µM (inactive),3.74 µM (inactive),,18.5 µM (inactive),19.5 µM (inactive),32.3 µM (inactive),23.4 µM (inactive),67 µM (inactive),57.5 µM (inactive),22.3 µM (inactive),39.1 µM (inactive),17.4 µM (inactive),63.2 µM (inactive),,19.6 µM (inactive),31.4 µM (inactive),,39.6 µM (inactive)
CCc1cc2c(c3c1CCC3=O)CC1(Cc3ccc(C)cc3C1)C2 (configuration not stated),0.159 µM (active),71.3 µM (inactive),38.1 µM (inactive),,21.7 µM (inactive),14.1 µM (inactive),> 100 µM (inactive),,22.2 µM (inactive),16.8 µM (inactive),> 100 µM (inactive),22.2 µM (inactive),,27.3 µM (inactive),32.1 µM (inactive),37.3 µM (inactive),27.4 µM (inactive),23.8 µM (inactive),19.7 µM (inactive),71.3 µM (inactive)
O=C(c1cccc(C(=O)c2ccc3c4c(cccc24)C(=O)N(c2ccccc2)C3=O)c1)c1ccc2c3c(cccc13)C(=O)N(c1ccccc1)C2=O,> 100 µM (inactive),> 100 µM (inactive),> 100 µM (inactive),,,,> 100 µM (inactive),> 100 µM (inactive),> 100 µM (inactive),38 µM (inactive),> 100 µM (inactive),40 µM (inactive),> 100 µM (inactive),> 100 µM (inactive),> 100 µM (inactive),> 100 µM (inactive),17.3 µM (inactive),> 100 µM (inactive),52.8 µM (inactive),> 100 µM (inactive)
CC[C@@]1(CCC(=O)NCCc2c[nH]c3ccccc23)CCC(=O)N2CCc3c([nH]c4ccccc34)[C@H]21,22.9 µM (inactive),4.19 µM (inactive),12.6 µM (inactive),,,28.7 µM (inactive),12.6 µM (inactive),25.8 µM (inactive),3.08 µM (inactive),12.2 µM (inactive),10.3 µM (inactive),17.1 µM (inactive),5.64 µM (inactive),15.3 µM (inactive),5.35 µM (inactive),24.5 µM (inactive),27.1 µM (inactive),3.9 µM (inactive),,36.2 µM (inactive)
